Measured values published in patent publication US8628771B2, “CA IX-specific inhibitors” (Institute of Virology Slovak Academy of Sciences, priority 2002, dated 2014).
Like-named read-outs stand apart in the source and are kept apart here.

Tests used:
[1] = target: T1, bCA IV (Bos taurus, UniProt Q95323); assay: CA esterase activity assay, isozyme bCA IV; assay type: biochemical, bovine; conditions: read-out: KI bCA IV
T1 construct: CA IV was isolated from bovine lung microsomes as described by Maren et al; from tissue; host or cells: bovine lung microsomes
T1 sequence (Q95323 19-284): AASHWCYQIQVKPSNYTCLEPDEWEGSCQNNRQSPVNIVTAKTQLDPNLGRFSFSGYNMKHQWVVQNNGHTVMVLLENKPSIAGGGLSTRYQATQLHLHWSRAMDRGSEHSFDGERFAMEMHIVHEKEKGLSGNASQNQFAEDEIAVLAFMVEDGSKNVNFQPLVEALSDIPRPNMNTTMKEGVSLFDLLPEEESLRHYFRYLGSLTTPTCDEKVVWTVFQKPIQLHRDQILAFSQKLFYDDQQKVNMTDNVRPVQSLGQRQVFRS

[2] = target: hCA IX (Homo sapiens, UniProt Q16790); assay: CA CO2 hydrase activity assay, tumor-associated isozyme hCA IX
Description: An SX.18MV-R Applied Photophysics stopped-flow instrument has been used for assaying the CA CO2 hydration activity assays [44]. […] Inhibitor and enzyme solutions were preincubated together for 10 min at room temperature prior to assay, in order to allow for the formation of the E-I complex.

[3] = target: T2, hCA I (Homo sapiens, UniProt P00915); assay: CA esterase activity assay, isozyme hCA I; assay type: biochemical
T2 construct: made in house; host or cells: Escherichia coli BL21 (DE3)
T2 sequence (P00915 whole entry): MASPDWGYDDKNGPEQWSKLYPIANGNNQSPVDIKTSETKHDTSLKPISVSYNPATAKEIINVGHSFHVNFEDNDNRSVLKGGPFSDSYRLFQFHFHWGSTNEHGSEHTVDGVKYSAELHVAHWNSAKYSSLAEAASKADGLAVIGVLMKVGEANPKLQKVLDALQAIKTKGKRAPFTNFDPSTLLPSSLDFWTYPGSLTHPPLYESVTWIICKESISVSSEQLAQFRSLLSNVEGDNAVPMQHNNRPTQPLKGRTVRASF
Description: Human CA I and CA II cDNAs were expressed in Escherichia coli strain BL21 (DE3) from the plasmids pACA/hCA I and pACA/hCA II described by Lindskog's group [54].
Non-enzymatic hydrolysis rates were always subtracted from the observed rates. […] Inhibitor and enzyme solutions were preincubated together for 10 min at room temperature prior to assay, in order to allow for the formation of the E-I complex. The inhibition constant KI was determined as described in references [44, 76].

[4] = target: T3, hCA II (Homo sapiens, UniProt P00918); assay: CA esterase activity assay, isozyme hCA II; assay type: biochemical
T3 construct: made in house; host or cells: Escherichia coli BL21 (DE3)

[5] = Table 1, isolated from bovine lung microsomes, esterase assay method
[6] = read-out: KI hCA IX, Table 1, human cloned isozyme, CO2 hydrase assay method
[7] = Table 1, human cloned isozymes, esterase assay method, read-out: KI hAC I
[8] = Table 2, human (cloned) isozymes, read-out: KI hCA II
[9] = read-out: KI hCA IX, Table 2, catalytic domain of the human, cloned isozyme
[10] = Table 2, human (cloned) isozymes, read-out: KI hCA I
[11] = Table 2, from bovine lung microsomes

| Ki [4, 8] [nM] | Ki [2, 9] [nM] | Ki [3, 10] [nM] | Ki [1, 11] [nM] | Compound | Ki [1, 5] [nM] | further results |
| --- | --- | --- | --- | --- | --- | --- |
|  |  |  |  | CCN[C@H]1CN(CCCOC)S(=O)(=O)c2sc(S(N)(=O)=O)cc21 [BRZ, brinzolamide, reference compound] | 45 |  |
|  |  |  |  | Nc1ccccc1S(N)(=O)=O [Compound 1] | 1310 | Ki [2, 6]: 33 nM |
|  |  |  |  | Nc1ccc(S(N)(=O)=O)cc1 [Compound 3, sulfanilamide] |  | Ki [1]: 3000 nM |
|  |  |  |  | NNc1ccc(S(N)(=O)=O)cc1 [Compound 4, 4-hydrazino-benzenesulfonamide] | 3220 | Ki [3, 7]: 78500 nM |
|  |  |  |  | NCc1ccc(S(N)(=O)=O)cc1 [Compound 5, homosulfanilamide] |  | Ki ([2]; read-out: KI hCA IX): 103 nM |
|  |  |  |  | Nc1ccc(S(N)(=O)=O)cc1F [Compound 7] | 180 | Ki [2, 6]: 245 nM |
|  |  |  |  | Nc1ccc(S(N)(=O)=O)cc1Cl [Compound 8] |  | Ki [2, 6]: 264 nM |
|  |  |  |  | Nc1ccc(S(N)(=O)=O)cc1Br [Compound 9] | 66 |  |
|  |  |  |  | Nc1ccc(S(N)(=O)=O)cc1I [Compound 10] | 125 | Ki [2, 6]: 285 nM; Ki [3, 7]: 6000 nM |
|  |  |  |  | Nc1cc(C(F)(F)F)c(S(N)(=O)=O)cc1S(N)(=O)=O [Compound 11] | 154 |  |
|  |  |  |  | Cn1nc(S(N)(=O)=O)sc1=N [Compound 14] |  | Ki [2, 6]: 30 nM |
|  |  |  |  | Nc1ccc(S(=O)(=O)Nc2ccc(S(N)(=O)=O)cc2)cc1 [Compound 16] | 129 | Ki [2, 6]: 34 nM |
|  |  |  |  | Nc1ccc(S(=O)(=O)Nc2ccccc2S(N)(=O)=O)cc1 [Compound 17] | 144 | Ki [3, 7]: 185 nM |
|  |  |  |  | Nc1ccc(S(=O)(=O)NCc2ccc(S(N)(=O)=O)cc2)cc1 [Compound 18] | 72 |  |
|  |  |  |  | Nc1ccc(S(=O)(=O)NCCc2ccc(S(N)(=O)=O)cc2)cc1 [Compound 19] | 72 | Ki [2, 6]: 24 nM |
|  |  |  |  | Nc1nccc(Nc2ccc(S(N)(=O)=O)cc2)n1 [Compound 20] | 154 | Ki ([2]; read-out: KI against CA IX, text discussion of Tables 1-3): 16 to 32 nM; Ki [2, 6]: 16 nM |
|  |  |  |  | NS(=O)(=O)c1cccc2cccnc12 [Compound 22] | 415 | Ki [2, 6]: 32 nM |
|  |  |  |  | NS(=O)(=O)c1cccc2ccccc12 [Compound 23] | 438 | Ki [2, 6]: 30 nM |
|  |  |  |  | NS(=O)(=O)c1ccc(CO)cc1 [Compound 24] |  | Ki [2, 6]: 21 nM |
|  |  |  |  | NS(=O)(=O)c1ccc(CCO)cc1 [Compound 25] | 450 | Ki [2, 6]: 22 nM |
|  |  |  |  | NS(=O)(=O)c1ccc(C(=O)O)cc1 [Compound 26] | 86 | Ki [2, 6]: 26 nM |
| 150 | 165 | 10000 | 290 | Cc1cc(C)[n+](-c2ccc(S(N)(=O)=O)cc2)c(C)c1 [Compound 27] |  | Ki [2]: 160 to 450 nM |
| 60 | 48 | 7000 | 211 | Cc1cc(-c2ccccc2)cc(C)[n+]1-c1ccc(S(N)(=O)=O)cc1 [Compound 28] |  | Ki [2]: 6 to 54 nM |
| 60 | 43 | 6000 | 182 | CCc1cc(-c2ccccc2)cc(CC)[n+]1-c1ccc(S(N)(=O)=O)cc1 [Compound 29] |  | Ki ([2]; KI against CA IX, text discussion of Tables 1-3): 6 to 54 nM |

| Ki [4, 8] [nM] | Ki [2, 9] [nM] | Ki [3, 10] [nM] | Ki [1, 11] [nM] | Compound | Ki [1, 5] [nM] | further results |
| --- | --- | --- | --- | --- | --- | --- |
| 120 | 178 | 10000 | 194 | CCCc1cc(-c2ccccc2)cc(CCC)[n+]1-c1ccc(S(N)(=O)=O)cc1 [Compound 30] |  |  |
|  | 160 | 5000 | 90 | CC(C)c1cc(-c2ccccc2)cc(C(C)C)[n+]1-c1ccc(S(N)(=O)=O)cc1 [Compound 31] |  |  |
| 210 | 280 | 40000 | 852 | Cc1cc(-c2ccccc2)cc(-c2ccccc2)[n+]1-c1ccc(S(N)(=O)=O)cc1 [Compound 32] |  |  |
| 400 | 450 | 43000 | 1300 | CCc1cc(-c2ccccc2)cc(-c2ccccc2)[n+]1-c1ccc(S(N)(=O)=O)cc1 [Compound 33] |  |  |
| 580 |  | 140000 | 1480 | CCCc1cc(-c2ccccc2)cc(-c2ccccc2)[n+]1-c1ccc(S(N)(=O)=O)cc1 [Compound 34] |  |  |
| 440 |  | 125000 | 2100 | CC(C)c1cc(-c2ccccc2)cc(-c2ccccc2)[n+]1-c1ccc(S(N)(=O)=O)cc1 [Compound 35] |  |  |
| 620 |  | 305000 | 2160 | CCCCc1cc(-c2ccccc2)cc(-c2ccccc2)[n+]1-c1ccc(S(N)(=O)=O)cc1 [Compound 36] |  |  |
|  |  | 290000 | 2500 | NS(=O)(=O)c1ccc(-[n+]2c(-c3ccccc3)cc(-c3ccccc3)cc2-c2ccccc2)cc1 [Compound 37] |  | Ki ([4]; read-out: KI hCA II): 510 nM |
| 40 | 72 | 5000 | 61 | Cc1cc(C)[n+](-c2ccc(S(N)(=O)=O)cc2)c(C)c1C [Compound 38] |  | Ki [2]: 64 to 135 nM |
| 50 | 42 | 6000 | 80 | Cc1cc(C)[n+](Cc2ccc(S(N)(=O)=O)cc2)c(C(C)C)c1 [Compound 40] |  |  |
| 80 | 54 | 11000 | 144 | Cc1cc(C(C)C)[n+](Cc2ccc(S(N)(=O)=O)cc2)c(C(C)C)c1 [Compound 41] |  |  |
|  | 26 | 4000 | 70 | Cc1cc(-c2ccccc2)cc(C)[n+]1Cc1ccc(S(N)(=O)=O)cc1 [Compound 42] |  |  |
| 61 | 100 | 12000 |  | CC(C)c1cc(-c2ccccc2)cc(C(C)C)[n+]1Cc1ccc(S(N)(=O)=O)cc1 [Compound 45] |  |  |
| 370 | 80 | 112000 |  | CC(C)c1cc(-c2ccccc2)cc(-c2ccccc2)[n+]1Cc1ccc(S(N)(=O)=O)cc1 [Compound 49] |  |  |
| 321 |  | 110000 |  | CC(C)(C)c1cc(-c2ccccc2)cc(-c2ccccc2)[n+]1Cc1ccc(S(N)(=O)=O)cc1 [Compound 51] |  | Ki [1]: 1070 nM |
|  | 14 |  |  | Cc1cc(C)[n+](CCc2ccc(S(N)(=O)=O)cc2)c(C)c1.[O-][Cl+3]([O-])([O-])[O-] [Compound 55] |  |  |
| 21 | 89 | 6000 |  | CC(C)c1cc(-c2ccccc2)cc(C(C)C)[n+]1CCc1ccc(S(N)(=O)=O)cc1 [Compound 61] |  | Ki [2]: 64 to 135 nM |
| 103 | 37 | 18000 |  | Cc1cc(-c2ccccc2)cc(-c2ccccc2)[n+]1CCc1ccc(S(N)(=O)=O)cc1 [Compound 62] |  | Ki [2]: 6 to 54 nM |
| 220 | 70 | 40000 |  | CCc1cc(-c2ccccc2)cc(-c2ccccc2)[n+]1CCc1ccc(S(N)(=O)=O)cc1 [Compound 63] |  |  |
| 275 |  | 92000 | 1000 | CC(C)(C)c1cc(-c2ccccc2)cc(-c2ccccc2)[n+]1CCc1ccc(S(N)(=O)=O)cc1 [Compound 67] |  |  |
| 419 | 95 | 270000 |  | NS(=O)(=O)c1ccc(CC[n+]2c(-c3ccccc3)cc(-c3ccccc3)cc2-c2ccccc2)cc1 [Compound 68] |  | Ki [2]: 64 to 135 nM |
|  |  |  |  | Cc1cc(-c2ccccc2)[n+](-c2ccc(S(=O)(=O)Nc3nnc(S(N)(=O)=O)s3)cc2)c(-c2ccccc2)c1 [Compound 86] |  | Ki ([4]; Table 3, human (cloned) isozymes, esterase assay method, read-out: KI hCA II): 4.78 nM; Ki ([4]; read-out: KI against CA II): 3.13 to 5.96 nM; Ki [2]: 12 to 35 nM; Ki ([2]; read-out: KI hCA IX, Table 3, catalytic domain of the human, cloned isozyme, CO2 hydrase assay method): 12 nM |
|  |  |  | 65 | NS(=O)(=O)c1ccc(S(=O)(=O)Nc2cccc3c(Cl)c[nH]c23)cc1 [indisulam, reference compound] |  | Ki ([1]; Table 3, from bovine lung microsomes, esterase assay method): 65 nM |

| Compound | Ki [4, 8] [nM] | Ki [2, 9] [nM] | Ki [3, 10] [nM] | Ki [1, 11] [nM] | Ki [1, 5] [nM] | further results |
| --- | --- | --- | --- | --- | --- | --- |
| CC(C)c1cc(-c2ccccc2)cc(-c2ccccc2)[n+]1CCc1ccc(S(N)(=O)=O)cc1 [Compound 65] | 350 | 78 |  |  |  | Ki ([3]; read-out: KI hCA I): 94000 nM |
